Results reported in US12502365B2 (Instytut Biologii Doswiadczalnej Im. Marcelego Nenckiego …, priority 2019, dated 2025).

How the values were obtained:
[1] = tested on: murine cancer models: melanoma, hemangioma, ovarian carcinoma, colorectal, breast and pancreatic cancer; conditions: cited from earlier work
[2] = humans, oral; cited from earlier work
[3] = single dose up to 800 mg or repeated dose up to 200 mg twice a day for a week; cited from earlier work
MMP-9 [4] = target: T1, MMP-9 (Rattus norvegicus, UniProt P50282); experiment: Inhibition of MMP-9-dependent nectin-3 cleavage in glutamate-stimulated hippocampal neuron cultures (immunoblotting); assay type: cell-based
T1 construct: stimulate neuronal cell activity leading to release of MMP-9; endogenous in cells; host or cells: primary rat hippocampal neurons, 7 DIV
T1 sequence (P50282 108-708): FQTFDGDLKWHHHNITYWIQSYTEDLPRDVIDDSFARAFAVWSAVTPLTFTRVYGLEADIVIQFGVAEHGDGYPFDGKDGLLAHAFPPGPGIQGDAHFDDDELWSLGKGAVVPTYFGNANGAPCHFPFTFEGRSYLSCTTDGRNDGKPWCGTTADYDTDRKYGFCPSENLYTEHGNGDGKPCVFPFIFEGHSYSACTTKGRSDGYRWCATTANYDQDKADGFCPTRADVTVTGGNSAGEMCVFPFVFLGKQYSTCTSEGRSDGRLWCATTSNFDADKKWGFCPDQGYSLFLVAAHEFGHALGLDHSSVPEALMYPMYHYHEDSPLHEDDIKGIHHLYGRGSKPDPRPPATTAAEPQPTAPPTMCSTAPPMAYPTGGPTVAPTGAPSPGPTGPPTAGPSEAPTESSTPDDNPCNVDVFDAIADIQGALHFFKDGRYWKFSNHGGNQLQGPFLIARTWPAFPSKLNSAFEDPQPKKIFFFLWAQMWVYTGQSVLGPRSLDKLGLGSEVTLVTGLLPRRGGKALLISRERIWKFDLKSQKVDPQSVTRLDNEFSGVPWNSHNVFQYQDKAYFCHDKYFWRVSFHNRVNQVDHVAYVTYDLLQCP
Description: In the first non-limiting example, the compound was tested for specific inhibition of MMP-9 activity in vitro. Hippocampal neurons were prepared from newborn Wistar rats at postnatal day P0 as described previously (Habas et al., 2006). The culture medium consisted of Neurobasal Medium supplemented with B27 (Invitrogen) and 1 mM 1-glutamine, 100 U ml^−1 penicillin and 0.1 mg ml^−1 streptomycin. The cells used for these experiments were 7 DIV. […] The control cultures consisted of neurons stimulated with glutamate and of glutamate in the presence of inhibitor I (an inhibitor with proven inhibitory effect on MMP-9 activity). […] The MMP-9 activity level was evaluated by the cleavage of MMP-9 substrate-nectin-3.
Nectin-3 is a transmembrane protein predominantly expressed at post-synaptic part of the synapse (van der Kooij et al., 2014). […] We evaluated the basic amount of nectin-3 (by immunoblotting) and the presence of a cut fragment of nectin-3 (approximately 17 kDa).
For immunoblotting, cultures were homogenized in a lysis buffer containing 1 mM MgCl2, 5 mM HEPES (pH=7.4), 320 mM sucrose, 1 mM Na2F, and cOmplete™ Protease Inhibitor Cocktail (Roche) using Dounce glass homogenizer. Protein concentration was measured using BCA Protein Assay Kit (Pierce). […] For the quantification of individual bands, the scan of the photographic film was analyzed by densitometry using GeneTools software (Syngene).

MMP-9 [5] = target: T2, MMP-9 (Mus musculus, UniProt P41245); experiment: MMP-9-dependent nectin-3 cleavage in hippocampus after kainic acid injection (immunoblotting); assay type: in vivo, mice; conditions: 9 mg/kg i.p. 1 hour prior to KA; hippocampus 6 hours after KA
T2 construct: strongly associated with the release of MMP-9 from dendritic spines; from tissue; host or cells: mouse hippocampus (in vivo, after kainic acid)
T2 sequence (P41245 108-730): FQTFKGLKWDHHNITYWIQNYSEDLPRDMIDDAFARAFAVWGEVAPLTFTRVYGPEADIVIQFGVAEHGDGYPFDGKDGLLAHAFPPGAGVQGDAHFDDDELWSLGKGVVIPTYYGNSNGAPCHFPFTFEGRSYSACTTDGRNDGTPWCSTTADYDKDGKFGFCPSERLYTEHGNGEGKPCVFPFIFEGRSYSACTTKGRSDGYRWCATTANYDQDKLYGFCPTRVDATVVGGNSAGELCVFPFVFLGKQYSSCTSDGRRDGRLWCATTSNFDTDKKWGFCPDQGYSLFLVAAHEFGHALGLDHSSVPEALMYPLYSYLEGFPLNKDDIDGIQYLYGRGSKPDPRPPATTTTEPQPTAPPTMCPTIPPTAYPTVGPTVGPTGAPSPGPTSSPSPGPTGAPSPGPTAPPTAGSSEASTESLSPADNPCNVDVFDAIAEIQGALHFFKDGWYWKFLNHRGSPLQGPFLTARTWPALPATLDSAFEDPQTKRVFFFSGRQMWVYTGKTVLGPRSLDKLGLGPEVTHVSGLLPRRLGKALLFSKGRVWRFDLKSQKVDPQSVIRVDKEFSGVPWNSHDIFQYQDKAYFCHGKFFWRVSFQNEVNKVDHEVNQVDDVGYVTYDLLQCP
Description: In a further nonlimiting example, marimastat was tested in vivo, in a mouse model of epileptogenesis (intra-hippocampal kainic acid injection). […] This is the optimal time allowing for its potential therapeutic effects. […] As a result of the KA injection, strong epileptic seizures were observed due to increased neuronal activity.
The process of developing epileptic seizures evoked by KA (epileptogenesis) is strongly associated with the release of MMP-9 from dendritic spines. […] For this purpose, after 6 hours following KA-injection the hippocampus was isolated and the immunoblotting assay was performed for the presence of cleaved form of nectin-3 protein.

[6] = tested on: mouse model of epileptogenesis (intra-hippocampal kainic acid injection); experiment: Functional analysis in mouse model of epileptogenesis (intra-hippocampal kainic acid injection), video-EEG; assay type: in vivo, mice; conditions: for duration of the single seizure: P=0.02
Description: The functional analysis of therapeutic use of marimastat in mouse model of epileptogenesis (intra-hippocampal kainic acid injection) was performed. Epileptogenesis was induced by the administration of kainic acid directly into the CA1 region of the hippocampus, during stereotactic surgeries. Coordinates for CA1 were chosen according to Paxinos Mouse Brain Atlas. […] The mice were injected intraperitoneally (9 mg/kg b.w.), 3 times after administration of kainic acid at: • 1. 30 minutes • 2. 6 hours • 3. […] Each group consisted of 6 animals; the experiment was performed in two repetitions. Simultaneously, just after KA injections, mice were implanted with cranial and hippocampal electrodes for EEG registration (FIG. 3). […] Injected kainic acid stimulated the degeneration within CA1 and CA3 region, but also led to the changes within dentate gyms area. One of the most important changes observed in the epileptogenesis process was mossy fiber sprouting located in dentate gyms DG. Mossy fiber sprouting is defined as an aberrant sprouting of granule cells axons (mossy fibers) into the inner molecular layer of the dentate gyrus. This process is observed in patients with temporal lobe epilepsy (Buckmaster, 2012). Therefore, hippocampal electrode location was implanted into DG, below the injection site, according to coordinates: The electrode implantation process proceeded according to the following protocol. Stainless steel screw electrodes (Ø1.6 mm, Bilaney Consultants GmbH, Germany) were placed in the skull (Table 3; FIG. 3). A bipolar hippocampal electrode was positioned in the dentate gyms. The 2-week continuous (24 h/7 days) video-EEG (vEEG) monitoring was started immediately after KA injection. Mice were placed in PMMA cages (one mouse per cage) and connected to the recording system with commutators (SL6C, Plastics One Inc., USA). vEEG was performed using the Twin EEG recording system connected to a Comet EEG PLUS with 57-channel amplifier AS40-PLUS (Natus Medical Incorporated, USA) and filtered (high-pass filter cut-off 0.3 Hz, low-pass filter cut off 100 Hz). The behavior of the animals was recorded using a digital camera I-PRO WV-SC385 (Panasonic, Japan). As outcome measures, the present Inventors assessed the occurrence, frequency and duration of spontaneous seizures. An electroencephalographic seizure was defined as a high amplitude (>2× baseline) rhythmic discharge that clearly represented an abnormal EEG pattern that lasted >5 s. The frequency of seizures in each mouse was calculated as the number of seizures per completed EEG recording day or per week. Modified Racine's scale was used in the study (Racine, 1972): The experiment was divided into three parts: • 1) first 24 hours post-KA injection (acute response to injected convulsant) • 2) first week post-KA injection (acute response to injected convulsant) • 3) 4 weeks after KA injection (epileptogenesis upon injected convulsant—chronic changes) In each stage, several parameters were calculated: seizure duration (in seconds), seizure score (according the Racine scale), seizure number (per animal/per day). Additionally, in the first 24 hours, the time between the kainic acid injection and first epileptic seizure was also estimated.

[7] = tested on: MMP-1, MMP-2, MMP-3, MMP-7 and MMP-9; conditions: cited from earlier work
[8] = 4 weeks after KA injection, not significant

MMP-9-dependent cleavage of nectin-3 in vitro (MMP-9 [4]; hippocampal dissociated cell cultures, 7 DIV, glutamate 5 μM, 17 kDa nectin-3 fragment): inhibits
minimum effective dose inhibiting nectin-3 cleavage (MMP-9 [4]; tested at 5 nM, 0.5 μM, 5 μM, 40 μM and 100 μM, 30 min before glutamate): 0.5 µM
MMP-9-dependent nectin-3 enzymatic cleavage in vivo (optical density of the 17 kDa nectin-3 fragment) (MMP-9 [5]): specifically reduced
Compound: CNC(=O)[C@@H](NC(=O)[C@H](CC(C)C)[C@H](O)C(=O)NO)C(C)(C)C [marimastat, Marimastat]
tumor progression [1]: inhibited tumor progression
bioavailability [2]: high and predictable
half-life [2]: approximately 15 hours
side effects in healthy subjects [3]: did not show any side effects
duration of the single seizure ([6]; 4 weeks after KA injection): inhibited
seizure number [6, 8]: slightly decreased
seizure score [6, 8]: slightly decreased
latency to the 1st seizure ([6]; first 24 hours post-KA): no differences
seizure duration ([6]; first 24 hours post-KA): no differences
seizure score (Racine scale) ([6]; first 24 hours post-KA, 9 mg/kg i.p. at 30 min, 6 h, 24 h, P=0.0016): significantly decreased
seizure number ([6]; first 24 hours post-KA, P=0.005): significantly decreased
seizure number ([6]; first week post-KA): did not change
seizure score ([6]; first week post-KA): did not change
duration of the single seizure ([6]; first week post-KA): significantly reduced
inhibitory activity against major MMPs [7]: potent broad-spectrum inhibitory activity
